Reference: patent US12447153B2, “HER2 mutation inhibitors” (Array BioPharma Inc., priority 2021, dated 2025)

Experiments:
ErbB2 WT = ErbB2 WT (Homo sapiens (Human), UniProt P04626); assay: ErbB Enzyme Assay (HTRF KinEASE-TK), Assay 2; type: biochemical
EGFR wild type (EGFR WT) = EGFR wild type (EGFR WT) (Homo sapiens (Human), UniProt P00533); assay: Cellular Phosphorylation Assay, Assay 5 (EGF-stimulated EGFR phosphorylation, NIH 3T3 cells); type: cell-based
[1] = target: ErbB2 with Exon 20 YVMA insertion (HER2-YVMA) (Homo sapiens (Human), UniProt P04626, INS775YVMA); assay: Cellular Phosphorylation Assay, Assay 4 (constitutive ErbB2 phosphorylation, NIH 3T3 cells); type: cell-based
EGFR = EGFR (Homo sapiens (Human), UniProt P00533); assay: ErbB Enzyme Assay (HTRF KinEASE-TK), Assay 3; type: biochemical
[2] = EGF-stimulated EGFR WT phosphorylation
[3] = cellular EGFR WT phosphorylation, EGF-stimulated
[4] = cellular ErbB2 YVMA phosphorylation

ErbB2 with Exon 20 YVMA insertion (HER2-YVMA), sequence (P04626 other isoform, or with tags, fused parts or gaps ins YVMA behind 775): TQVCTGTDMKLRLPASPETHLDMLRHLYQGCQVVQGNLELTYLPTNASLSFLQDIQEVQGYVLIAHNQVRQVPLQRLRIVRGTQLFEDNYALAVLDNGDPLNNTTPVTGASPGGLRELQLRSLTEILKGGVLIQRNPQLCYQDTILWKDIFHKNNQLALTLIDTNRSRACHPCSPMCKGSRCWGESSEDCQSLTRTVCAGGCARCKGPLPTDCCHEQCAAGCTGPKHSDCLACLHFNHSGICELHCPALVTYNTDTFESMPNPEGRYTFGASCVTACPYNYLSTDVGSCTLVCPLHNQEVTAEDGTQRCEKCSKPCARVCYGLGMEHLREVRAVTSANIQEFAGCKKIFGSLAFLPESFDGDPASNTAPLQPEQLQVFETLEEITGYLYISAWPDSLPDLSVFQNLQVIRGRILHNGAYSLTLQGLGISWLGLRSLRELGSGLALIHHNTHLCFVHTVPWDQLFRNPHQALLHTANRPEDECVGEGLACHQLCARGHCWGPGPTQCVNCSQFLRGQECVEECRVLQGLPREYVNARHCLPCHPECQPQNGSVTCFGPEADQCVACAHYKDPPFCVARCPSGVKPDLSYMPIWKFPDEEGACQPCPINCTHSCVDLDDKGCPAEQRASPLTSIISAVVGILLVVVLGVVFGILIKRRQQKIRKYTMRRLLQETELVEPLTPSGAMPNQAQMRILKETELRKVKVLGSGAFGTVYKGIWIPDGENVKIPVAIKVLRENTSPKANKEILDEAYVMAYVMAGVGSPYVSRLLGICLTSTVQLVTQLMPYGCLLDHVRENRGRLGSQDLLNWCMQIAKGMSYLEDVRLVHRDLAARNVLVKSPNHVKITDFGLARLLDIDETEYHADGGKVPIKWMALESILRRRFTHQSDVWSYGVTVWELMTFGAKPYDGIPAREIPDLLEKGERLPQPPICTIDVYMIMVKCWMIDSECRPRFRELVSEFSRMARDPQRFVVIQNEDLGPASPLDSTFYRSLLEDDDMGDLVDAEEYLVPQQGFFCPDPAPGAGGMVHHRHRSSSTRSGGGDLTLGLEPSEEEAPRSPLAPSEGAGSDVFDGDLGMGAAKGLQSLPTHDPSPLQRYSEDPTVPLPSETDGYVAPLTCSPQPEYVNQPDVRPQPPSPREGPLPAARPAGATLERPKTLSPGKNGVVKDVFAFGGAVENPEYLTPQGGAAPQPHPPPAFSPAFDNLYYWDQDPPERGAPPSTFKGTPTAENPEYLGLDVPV
EGFR wild type (EGFR WT), sequence (P00533 25-1210): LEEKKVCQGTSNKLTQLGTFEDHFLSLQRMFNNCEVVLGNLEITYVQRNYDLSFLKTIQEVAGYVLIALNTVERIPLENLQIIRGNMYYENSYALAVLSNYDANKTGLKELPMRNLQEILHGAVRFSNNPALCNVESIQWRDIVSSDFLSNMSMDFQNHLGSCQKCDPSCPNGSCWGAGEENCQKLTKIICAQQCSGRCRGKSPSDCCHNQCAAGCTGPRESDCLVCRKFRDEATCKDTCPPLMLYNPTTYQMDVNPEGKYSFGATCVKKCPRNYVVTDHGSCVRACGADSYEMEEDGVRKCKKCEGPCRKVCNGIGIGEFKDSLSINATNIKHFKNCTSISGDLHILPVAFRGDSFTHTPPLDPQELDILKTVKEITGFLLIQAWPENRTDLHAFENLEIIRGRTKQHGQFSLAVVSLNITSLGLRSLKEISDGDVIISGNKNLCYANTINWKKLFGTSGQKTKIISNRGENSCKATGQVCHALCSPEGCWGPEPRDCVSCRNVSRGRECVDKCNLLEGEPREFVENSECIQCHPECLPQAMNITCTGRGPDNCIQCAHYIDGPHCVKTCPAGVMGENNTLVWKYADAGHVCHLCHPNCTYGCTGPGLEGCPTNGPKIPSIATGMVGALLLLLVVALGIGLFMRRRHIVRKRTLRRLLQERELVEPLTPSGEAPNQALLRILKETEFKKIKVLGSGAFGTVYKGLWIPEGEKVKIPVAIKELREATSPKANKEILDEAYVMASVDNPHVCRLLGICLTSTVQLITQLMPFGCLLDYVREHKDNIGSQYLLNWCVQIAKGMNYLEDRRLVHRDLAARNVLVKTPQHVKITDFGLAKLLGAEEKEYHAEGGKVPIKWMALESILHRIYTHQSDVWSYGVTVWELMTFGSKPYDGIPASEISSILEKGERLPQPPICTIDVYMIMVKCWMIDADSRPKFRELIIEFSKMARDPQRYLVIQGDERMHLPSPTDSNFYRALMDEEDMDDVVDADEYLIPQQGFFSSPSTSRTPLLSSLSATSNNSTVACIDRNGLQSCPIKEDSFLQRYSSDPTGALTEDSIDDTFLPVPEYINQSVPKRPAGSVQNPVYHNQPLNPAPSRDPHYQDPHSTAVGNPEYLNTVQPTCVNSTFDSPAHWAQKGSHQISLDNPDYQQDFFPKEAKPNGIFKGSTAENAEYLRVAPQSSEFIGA
EGFR, sequence (P00533 25-1210): as above
ErbB2 WT, sequence (P04626 23-1255): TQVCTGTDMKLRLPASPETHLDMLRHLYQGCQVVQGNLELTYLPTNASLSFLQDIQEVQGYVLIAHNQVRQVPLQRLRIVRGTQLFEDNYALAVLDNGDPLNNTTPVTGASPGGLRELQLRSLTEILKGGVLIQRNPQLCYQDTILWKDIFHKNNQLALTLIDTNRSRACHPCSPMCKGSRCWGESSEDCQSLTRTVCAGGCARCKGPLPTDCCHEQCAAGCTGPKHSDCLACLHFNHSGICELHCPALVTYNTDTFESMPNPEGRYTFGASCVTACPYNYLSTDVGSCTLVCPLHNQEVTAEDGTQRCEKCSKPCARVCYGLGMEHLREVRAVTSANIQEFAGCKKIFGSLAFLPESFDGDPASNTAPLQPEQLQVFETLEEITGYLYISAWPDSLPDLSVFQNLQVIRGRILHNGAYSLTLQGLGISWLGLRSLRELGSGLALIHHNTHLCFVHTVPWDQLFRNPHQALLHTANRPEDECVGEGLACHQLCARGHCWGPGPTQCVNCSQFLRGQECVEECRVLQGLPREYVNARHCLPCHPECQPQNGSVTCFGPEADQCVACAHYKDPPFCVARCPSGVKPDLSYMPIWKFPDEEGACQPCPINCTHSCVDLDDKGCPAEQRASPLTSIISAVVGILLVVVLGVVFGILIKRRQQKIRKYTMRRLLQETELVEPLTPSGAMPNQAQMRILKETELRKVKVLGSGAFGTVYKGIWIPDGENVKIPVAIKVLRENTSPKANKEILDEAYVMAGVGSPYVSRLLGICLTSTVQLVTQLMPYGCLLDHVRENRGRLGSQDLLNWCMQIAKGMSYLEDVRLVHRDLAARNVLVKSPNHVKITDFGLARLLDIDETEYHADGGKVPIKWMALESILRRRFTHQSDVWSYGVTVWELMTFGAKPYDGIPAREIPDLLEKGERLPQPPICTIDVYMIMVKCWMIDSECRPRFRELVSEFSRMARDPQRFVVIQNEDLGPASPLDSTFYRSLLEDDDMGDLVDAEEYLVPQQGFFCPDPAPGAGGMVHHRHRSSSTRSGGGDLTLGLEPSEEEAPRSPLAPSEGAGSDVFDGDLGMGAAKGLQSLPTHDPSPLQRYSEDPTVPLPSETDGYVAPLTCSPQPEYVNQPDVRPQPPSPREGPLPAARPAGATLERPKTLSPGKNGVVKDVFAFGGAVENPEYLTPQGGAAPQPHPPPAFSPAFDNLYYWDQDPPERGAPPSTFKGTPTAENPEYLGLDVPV

SMILES | IC50 (ErbB2 WT; ErbB2 WT enzyme) [nM] | IC50 (EGFR wild type (EGFR WT); [2]) [nM] | IC50 ([1]; ErbB2 YVMA phosphorylation) [nM] | IC50 (EGFR; EGFR enzyme) [nM] | IC50 (ErbB2 WT; ErbB2 WT enzyme assay) [nM] | IC50 (EGFR wild type (EGFR WT); [3]) [nM] | IC50 [1, 4] [nM] | IC50 (EGFR; EGFR enzyme assay) [nM]
C=CC(=O)N1CCC[C@@H](c2ccc3ncnc(Nc4cc(C)c(Oc5ccc6c(c5)ncn6C)cc4F)c3n2)CC1 (racemic) [Example 135, rac-(R)-1-(4-(4-((2-fluoro-5-methyl-4-((1-methyl-1H-benzo[d]imidazol-5-yl)oxy)phenyl)amino)pyrido[3,2-d]pyrimidin-6-yl)azepan-1-yl)prop-2-en-1-one] | 121 | ≥ 5000 | 44.5 | ≥ 10000 |  |  |  | 
C=CC(=O)N1C[C@@H](c2ccc3ncnc(Nc4cc(C)c(Oc5ccn6ncnc6c5)cc4F)c3n2)C[C@@H]1C (mixture of isomers) [Example 384] |  |  |  |  | 101 | ≥ 5000 | 58.3 | 3000
C=CC(=O)N1C[C@H]2CC[C@@H]1C[C@H]2c1ccc2ncnc(Nc3cc(C)c(Oc4cnc5c(c4)ncn5C)cc3F)c2n1 [Example 421] |  |  |  |  | 217 | ≥ 5000 | 94.3 | ≥ 10000
C=CC(=O)N1CCN(c2ccc3ncnc(Nc4cc(C)c(Oc5ccn6ncnc6c5)cc4F)c3n2)C[C@@H]1C(F)F (racemic) [Example 312] |  |  |  |  | 23.8 | 312 | 13.4 | 892
C=CC(=O)N1[C@H](C)C[C@@H](c2ccc3ncnc(Nc4ccc(Oc5ccc6c(c5)ncn6C)c(C)c4F)c3n2)C[C@@H]1C [Example 166, 1-((2R,4SR,6S)-4-(4-((2-fluoro-3-methyl-4-((1-methyl-1H-benzo[d]imidazol-5-yl)oxy)phenyl)amino)pyrido[3,2-d]pyrimidin-6-yl)-2,6-dimethylpiperidin-1-yl)prop-2-en-1-one] | 64.2 | ≥ 5000 | 64.6 | ≥ 10000 |  |  |  | 
CC#CC(=O)N1[C@@H]2CC[C@H]1C[C@@H](c1ccc3ncnc(Nc4cc(C)c(Oc5ccn6ncnc6c5)cc4F)c3n1)C2 [Example 208, 1-((1R,3r,5S)-3-(4-((4-([1,2,4]triazolo[1,5-a]pyridin-7-yloxy)-2-fluoro-5-methylphenyl)amino)pyrido[3,2-d]pyrimidin-6-yl)-8-azabicyclo[3.2.1]octan-8-yl)but-2-yn-1-one] | 172 | ≥ 5000 | 328 | ≥ 10000 |  |  |  | 
C=CC(=O)N1[C@H]2CC[C@@H]1[C@H](c1ccc3ncnc(Nc4cc(C)c(Oc5ccn6ncnc6c5)cc4F)c3n1)CC2 [Example 428] |  |  |  |  | 62.4 | 954 | 24.7 | 1480
C=CC(=O)N1CCC(Oc2ccc3ncnc(Nc4cc(Cl)c(Oc5ccc6cn(C)nc6c5)cc4F)c3n2)CC1 [Example 4, 1-(4-((4-((5-chloro-2-fluoro-4-((2-methyl-2H-indazol-6-yl)oxy)phenyl)amino)pyrido[3,2-d]pyrimidin-6-yl)oxy)piperidin-1-yl)prop-2-en-1-one] | 876 | ≥ 5000 | 392 | ≥ 10000 |  |  |  | 
C=CC(=O)N1C[C@H]2CC[C@@H]1[C@H](c1ccc3ncnc(Nc4cc(C)c(Oc5cnc6c(c5)ncn6C)cc4F)c3n1)C2 [Example 424] |  |  |  |  | 405 | ≥ 5000 | 44.8 | ≥ 10000
C=CC(=O)N1C2CCC1CN(c1ccc3ncnc(Nc4ccc(Oc5ccc6c(c5)ncn6C)c(C)c4F)c3n1)C2 [Example 431] |  |  |  |  | 44.9 | 393 | 13.1 | 712
C=CC(=O)N1C[C@H](c2ccc3ncnc(Nc4cc(C)c(Oc5ccn6ncnc6c5)cc4F)c3n2)C[C@H]1C (mixture of isomers) [Example 386] |  |  |  |  | 220 | ≥ 5000 | 235 | ≥ 10000
C=CC(=O)N1CCCN(c2ccc3ncnc(Nc4cc(C)c(Oc5ccn6ncnc6c5)cc4F)c3n2)CC1(C)C [Example 260] |  |  |  |  | 41.5 | ≥ 5000 | 114 | 4510
C=CC(=O)N1C[C@@H]2C[C@H](c3ccc4ncnc(Nc5ccc(Oc6ccn7ncnc7c6)c(C)c5F)c4n3)C[C@H]1C2 [Example 391] |  |  |  |  | 23.9 | 238 | 19.8 | 368
C=CC(=O)N1C[C@H]2C[C@@H]1CN(c1ccc3ncnc(Nc4cc(C)c(Oc5ccc6c(c5)ncn6C)cc4F)c3n1)C2 [Example 119, 1-((1S,5R)-3-(4-((2-fluoro-5-methyl-4-((1-methyl-1H-benzo[d]imidazol-5-yl)oxy)phenyl)amino)pyrido[3,2-d]pyrimidin-6-yl)-3,6-diazabicyclo[3.2.1]octan-6-yl)prop-2-en-1-one] | 60.4 | ≥ 5000 | 9.4 | ≥ 10000 |  |  |  | 
C=CC(=O)N1CCN(c2ccc3ncnc(Nc4cc(Cl)c(Oc5ccn6ncnc6c5)cc4F)c3n2)CC1C(F)F (stereo not drawn) [Example 365] |  |  |  |  | 17.6 | 238 | 16.5 | 465
C=CC(=O)N1C[C@@H]2CC[C@H]1C[C@H]2c1ccc2ncnc(Nc3ccc(Oc4ccn5ncnc5c4)c(C)c3F)c2n1 (single isomer, unassigned) [Example 235] | 31 | ≥ 5000 | 92.1 | 1020 |  |  |  | 
C=CC(=O)N1C[C@@H]2C[C@H]1CN2c1ccc2ncnc(Nc3ccc(Oc4ccn5ncnc5c4)c(C)c3F)c2n1 [Example 95, 1-((1S,4S)-5-(4-((4-([1,2,4]triazolo[1,5-a]pyridin-7-yloxy)-2-fluoro-3-methylphenyl)amino)pyrido[3,2-d]pyrimidin-6-yl)-2,5-diazabicyclo[2.2.1]heptan-2-yl)prop-2-en-1-one] | 38 | 49.5 | 5 | 378 |  |  |  | 
C=CC(=O)N1C2CCC1CN(c1ccc3ncnc(Nc4ccc(Oc5ccn6ncnc6c5)c(Cl)c4F)c3n1)C2 [Example 238, 1-(3-(4-((4-([1,2,4]triazolo[1,5-a]pyridin-7-yloxy)-3-chloro-2-fluorophenyl)amino)pyrido[3,2-d]pyrimidin-6-yl)-3,8-diazabicyclo[3.2.1]octan-8-yl)prop-2-en-1-one] | 11.7 | 90.3 | 5.5 | 114 |  |  |  | 
CC#CC(=O)N1CCN(c2ccc3ncnc(Nc4ccc(Oc5ccn6ncnc6c5)c(Cl)c4F)c3n2)C[C@H]1C [Example 178, (R)-1-(4-(4-((4-([1,2,4]triazolo[1,5-a]pyridin-7-yloxy)-3-chloro-2-fluorophenyl)amino)pyrido[3,2-d]pyrimidin-6-yl)-2-methylpiperazin-1-yl)but-2-yn-1-one] | 8 | 437 | 27.7 | 443 |  |  |  | 
C=CC(=O)N1CC[C@H]2C[C@@H](c3ccc4ncnc(Nc5ccc(Oc6ccc7c(c6)ncn7C)c(C)c5F)c4n3)C[C@H]21 (racemic) [Example 133, rac-1-((3aR,5R,6aR)-5-(4-((2-fluoro-3-methyl-4-((1-methyl-1H-benzo[d]imidazol-5-yl)oxy)phenyl)amino)pyrido[3,2-d]pyrimidin-6-yl)hexahydrocyclopenta[b]pyrrol-1(2H)-yl)prop-2-en-1-one] | 41.5 | 3780 | 34 | 3170 |  |  |  | 
C=CC(=O)N1CCC[C@@H](c2ccc3ncnc(Nc4ccc(Oc5ccn6ncnc6c5)c(C)c4F)c3n2)CC1 (single isomer, unassigned) [Example 210] | 10.7 | ≥ 5000 | 67.7 | 1610 |  |  |  | 
